Results from patent publication US7871978B2, “Bone tropic peptides” (University of Virginia Patent Foundation, priority 2004, dated 2011).

Assays:
[1] = tested on: bone and marrow tissue sections (mouse femur, rib); experiment: Biotinylated peptide binding to bone/marrow tissue sections, Avidin-FITC fluorescence; parameters: key to Localization of peptide binding: Bone/Marrow (tissue sections): ✓: Check marks indicate positive binding observed with FITC; −: a dash indicates a negative result
Method: Methods: Four-week old Swiss Webster mice were euthanized; the femurs were excised and decalcified in 0.25M EDTA in PBS solution for 5 days, and washed in PBS for 24 hours. The femoral shafts were obtained by cutting off the proximal and distal ends of the femur. The femoral shafts were placed in Tissue-Tek O.C.T. Compound (Sukura Finetek, Torrance, Calif.) and frozen at −20° C. overnight. Sections were cut at 10 μm serially with a cryomicrotome, rinsed with 1% BSA in PBS three times. To block non-specific reaction sections were incubated with Avidin/Biotin Blocking Kit (Vector Laboratories, Inc. Burlingame, Calif.) according to the manufacturer's instructions. Following another rinse with PBS, 150 μl 10 mM solution of each biotinylated peptide (L1, L2, L7, R1, R8) was added to the slides and incubated for 1 hour at room temperature. In negative controls, only PBS was added. After rewashes with 1% BSA, 150 μl of 1:50,000 dilution of Avidin-FITC was added to each slide and incubated overnight at 4° C.
The sections were washed with 1% BSA in PBS and mounted with Vectashield (Vector Laboratories Inc., Burlingame, Calif.). Fluorescence was visualized using a Nikon eclipse E600 microscope (Nikon, Melville, N.Y.) equipped with a 535 nm wavelength fluorescein filter. Images were obtained using a Sony DKC-5000 digital camera (Sony Electronics Inc.) and processed with Adobe Photoshop software (Adobe Systems Incorporated, San Jose, Calif.).
(§1) For localization of peptide binding to cells and tissue sections, biotinylated peptides were synthesized. Fluorescein-isothiocyanate (FITC) labeled Avidin was used to localize the peptides on cells in culture and in tissue sections in vitro by epiluminescence microscopy. In addition, the biotinylated peptides were detected at concentrations as low as 1 μM in slot blots.
Cryosections of decalcified femurs harvested from 4 week BALB/c mice were incubated with biotinylated peptide and Avidin-FITC. […] The distribution of fluorescence throughout the marrow was uneven. […] In control slides incubated with PBS without peptide, none of the cells could be detected by fluorescence (not shown). […]

bone and bone marrow = experiment: In vivo biopanning with 12-mer peptide phage display library; parameters: species or system BALB/c mice
Text: The Ph.D.-12 Phage Display Peptide Library Kit (New England Biolabs, Beverly, Mass.) used in this study is based on a combinatorial library of random peptide 12-mers fused to a minor coat protein (pIII). […] The peptide is followed by a short spacer of four amino acid residues, the first three residues of which are glycine and the fourth of which is serine, and then the wild-type III sequence. The library consists of approximately 2.7×10^9 electroporated sequences, amplified once to yield approximately 55 copies of each sequence.
For in vivo biopanning, BALB/c mice 8 weeks of age were injected 3.4×10^10 pfu of phage into the heart. The animals were euthanized after 5 minutes, and the tissues (bone, bone marrow, kidney, liver, and spleen) were collected for analysis. The bound phage was eluted according the manufacturer's instructions. The eluted phage was titered, amplified, purified, and injected again at the same concentration.
The frequency of each peptide in bone and bone marrow was compared with its location in other tissues such as liver, kidney, lung, spleen, and brain. Thirteen unique peptide sequences eluted from bone and marrow were identified were identified by sequencing phage DNA. The peptides were synthesized using the polystyrene solid support on a Protein Technologies Symphony Multiple Channel Synthesizer.

[2] = tested on: human bone marrow endothelial cells (HBME); experiment: Peptide binding to HBME cells in culture (Avidin-FITC); parameters: key: ✓: Check marks indicate positive binding observed with FITC; −: a dash indicates a negative result
Method: as §1
(§2) Bone marrow cells isolated from mouse femur were lifted with ethylenediaminetetraacetic acid (EDTA) and trypsin, resuspended, and allowed to attach on fibronectin-coated chamber slides for Avidin-FITC staining. […] The D1 cell is a multipotential mesenchymal stem-like line that was isolated from bone marrow and shown to have the characteristics of osteoprogenitor cells. This cell line has been well established and used successfully in several in vitro and in vivo studies in our laboratory. Peptide binding to human bone marrow endothelial cells (HBME) and bovine aortic endothelial cells (BAEC) in culture was also tested using the same procedure.

[3] = tested on: bovine aortic endothelial cells (BAEC); experiment: Peptide binding to BAEC in culture (Avidin-FITC); parameters: key: ✓: Check marks indicate positive binding observed with FITC; −: a dash indicates a negative result
Method: as §1, §2

[4] = tested on: Bone marrow cells isolated from mouse femur; experiment: Peptide binding to bone marrow cells in culture (Avidin-FITC); parameters: key to Localization of peptide binding: Marrow (cells in culture): ✓: Check marks indicate positive binding observed with FITC; −: a dash indicates a negative result
Method: as §1, §2

[5] = tested on: Membrane and cytosol fractions from bovine aortic endothelial cells; experiment: Affinity chromatography of BAEC fractions on immobilized peptide; format: binding
Method: Membrane and cytosol fractions from human bone marrow endothelial cells and bovine aortic endothelial cells were prepared and used to identify the components from within these fractions that bind to the peptides using affinity chromatography). […] Cell surface nucleolin is present at higher concentrations in actively dividing cells and is down regulated in cells when they become quiescent. Nucleolin is the apparent cell surface receptor of E-coli intimin-gamma. Cell bound intimin has been proposed to trigger a host cell response similar to the extension of filipodia when cells bind to laminin. […] Table 3 provides a summary of peptide-binding partners (putative receptors) identified by affinity chromatography of cell lysates.

[6] = tested on: Unicortical femoral defects; experiment: Peptide-mediated osteogenesis in cortical bone defects (Example 8); format: in vivo, Fisher 344 rats; conditions: 100 mM peptide in gelfoam, two weeks postoperatively, versus gelfoam+PBS
Method: In an in vivo study, all 13 peptides at a concentration of 100 mM were tested for their ability to potentiate osteogenesis. A gelfoam cylinder 1.5 mm in diameter 2 mm in length was used as carrier for the peptides. Unicortical femoral defects 1.5 mm in diameter were created bilaterally in Fisher 344 rats; the left femoral defect was filled with gelfoam+PBS (Control), and the right femur with gelfoam+peptide. The samples were harvested and examined two weeks postoperatively. To examine the effect of peptide concentration on cortical bone regeneration, peptide L7 (SEQ ID NO:5) was used at 1, 5, and 20 mM. […] The time course of cortical bone repair with 20 mM L7 was examined at 5, 10, 15, and 20 days.

[7] = BALB/c mouse femur cryosections, biotinylated peptide
[8] = Swiss Webster mouse femur cryosections, 10 mM biotinylated peptide

Substance: SER-TYR-SER-GLN-MET-ASP-PRO-PRO-ARG-SER-LEU-PRO-GLY-GLY-GLY-SER (SYSQMDPPRSLPGGGS; listed as Homo sapiens) [Peptide R8]
- Cell shape preferentially recognized by peptide [1, 7]: recognized the round cells preferentially
- Extent of marrow cells detected by fluorescence [1, 7]: did not detect as many cells
- Localization of peptide binding: Bone/Marrow (tissue sections) ([1]; FITC): ✓
- Cell shape preferentially recognized by peptide [1, 8]: recognized the round cells preferentially
- Extent of marrow cells detected by fluorescence [1, 8]: did not detect as many cells
- PERCENT FREQUENCY (bone and bone marrow; phage eluted from bone and bone marrow): 24.1%
- PHAGE SEQUENCE FREQUENCY (number of times the sequence was found in a group of plaques) (bone and bone marrow; phage eluted from bone and bone marrow after repeated rounds): 7/29
- Localization of peptide binding: HBME [2]: ✓
- Localization of peptide binding: BAEC [3]: ✓
- Localization of peptide binding: Marrow (cells in culture) ([4]; FITC): ✓
- Binding to adherent cells from bone marrow blowouts ([4]; fibronectin-coated chamber slides, Avidin-FITC staining): showed detectable binding
- Binding partner from BAEC lysates ([5]; biotinylated peptide immobilized on avidin-agarose): vimentin was found to bind
- Identification of binding partners by affinity chromatography: BAEC ([5]; cell lysates): ✓Vimentin
- Effectiveness at stimulating osteogenesis and cortical bone repair [6]: most effective at stimulating osteogenesis and cortical bone repair
